The record followed here is patent publication US11072632B2, “Inhibitors of 17β-HSD1, 17β-HSD3 and 17β-HSD10” (UNIVERSITÉ LAVAL, priority 2011, dated 2021).

Like-named read-outs stand apart in the source and are kept apart here.

Experiment [1] concerns the target T1, 17β-HSD1 (Homo sapiens, UniProt P14061).
T1 construct: endogenous in cells; host or cells: T-47D
T1 sequence (P14061 1-328): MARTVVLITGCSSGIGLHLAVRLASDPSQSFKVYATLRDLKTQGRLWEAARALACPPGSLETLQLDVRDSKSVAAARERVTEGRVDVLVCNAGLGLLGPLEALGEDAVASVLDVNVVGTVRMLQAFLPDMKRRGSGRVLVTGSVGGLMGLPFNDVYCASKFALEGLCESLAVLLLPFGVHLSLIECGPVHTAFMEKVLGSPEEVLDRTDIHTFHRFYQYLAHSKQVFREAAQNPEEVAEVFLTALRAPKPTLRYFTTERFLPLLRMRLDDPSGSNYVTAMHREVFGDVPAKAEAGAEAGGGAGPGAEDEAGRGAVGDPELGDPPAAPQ
Put plainly: Inhibition of 17β-HSD1 in T-47D intact cells (E1 into E2). It is filed as cell-based. To be noted: T47D; for inhibition at 0.1 µM: read-out: Inhibition (0.1 μM); for inhibition at 1 µM: read-out: Inhibition (1 μM). As to the method:
T-47D cells were seeded in a 24-well plate (3000 cells/well) in medium supplemented with insulin (50 ng/mL) and 5% dextran-coated charcoal treated FBS rather than 10% FBS to remove remaining hormones. […] Each inhibitor was assessed in triplicate. After incubation, the culture medium was removed and labelled steroids (E1 and E2) extracted with 1 mL of diethyl ether. The organic phases were separated and evaporated to dryness using nitrogen. Residues were dissolved in dichloromethane and dropped on silica gel thin layer chromatography plates (EMD Chemicals Inc., Gibbstown, N.J., USA) and eluted with a toluene/acetone (4:1) solvent system. Substrate [^14C]-E1 and metabolite [^14C]-E2 were identified by comparison with reference steroids and quantified using a Storm 860 system (Molecular Dynamics, Sunnyvale, Calif., USA).
T-47D cells were seeded in a 24-well plate (3000 cells/well) in 990 μL of medium supplemented with insulin (50 ng/mL) and 5% dextran-coated charcoal-treated FBS, which was used rather than untreated 10% FBS, to remove the remaining steroid hormones. […] The final concentration of ethanol in the well was adjusted to 0.1%. Additionally, 5 μL of a solution of [^14C]-estrone (American Radiolabeled Chemicals, Inc., St. Louis, Mo., USA) was added to obtain a final concentration of 60 nM. […] After incubation, the culture medium was removed and labeled steroids (E1 and E2) were extracted with 1 mL of diethyl ether. The organic phases were evaporated to dryness with nitrogen. Residues were dissolved in dichloromethane and dropped on silica gel thin layer chromatography plates (EMD Chemicals Inc., Gibbstown, N.J., USA) and eluted with toluene/acetone (4:1) as solvent system. Substrate [^14C]-E1 and metabolite [^14C]-E2 were identified by comparison with reference steroids (E1 and E2) and quantified using the Storm 860 system (Molecular Dynamics, Sunnyvale, Calif., USA).

For experiment [2], the target named is T2, 17β-HSD3 (Homo sapiens, UniProt P37058).
T2 construct: expressed in transfected cells; host or cells: HEK-293 (homogenate)
T2 sequence (P37058 1-310): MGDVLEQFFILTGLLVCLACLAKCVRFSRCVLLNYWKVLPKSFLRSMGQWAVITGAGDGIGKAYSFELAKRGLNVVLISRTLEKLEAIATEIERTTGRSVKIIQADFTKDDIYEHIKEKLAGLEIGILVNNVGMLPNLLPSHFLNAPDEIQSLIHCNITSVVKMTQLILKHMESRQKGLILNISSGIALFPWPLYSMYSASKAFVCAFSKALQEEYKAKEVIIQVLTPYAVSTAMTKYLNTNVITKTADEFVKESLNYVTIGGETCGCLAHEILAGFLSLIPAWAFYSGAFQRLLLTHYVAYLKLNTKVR
Put plainly: Inhibition of 17β-HSD3 in homogenated HEK-293 cells. It is filed as biochemical. The settings on record: for inhibition at 0.01 µM: read-out: Homo (%) (0.01 μM), Table 4; for inhibition at 1 µM: read-out: Homo (%) (1.0 μM), Table 4; for inhibition at 0.1 µM: read-out: Homo (%) (0.1 μM), Table 4.

Experiment [3] deals with T2, 17β-HSD3. Put plainly: Inhibition of 17β-HSD3 in intact HEK-293 cells. It is filed as cell-based. To be noted: 0.1 μM; for inhibition at 0.1 µM: HEK293, 1 h, read-out: Intact cells (%) (0.1 μM), Table 4; for Intact cells (%) (0.1 μM), tested in another experiment: Table 4, footnote b.
Setting [4] is: Table 2 (17β-HSD1), [14C]-E1 60 nM, T-47D intact cells, 0.1 μM.
Setting [5] is: Table 2 (17β-HSD1), [14C]-E1 60 nM, T-47D intact cells, 1 μM.

In the case of `C[C@]12CC[C@@H]3c4ccc(CCCl)cc4CC[C@H]3[C@@H]1C[C@H](Cc1cccc(C(N)=O)c1)[C@@H]2O` [Compound 9, 3-{[(16β,17β)-3-(2-chloroethyl)-17-hydroxyestra-1(10),2,4-trien-16-yl]methyl}benzamide], the inhibition at 0.1 µM in experiment [1] came out at 55%.

Turning to `C[C@]12CC[C@@H]3c4ccc(CCI)cc4CC[C@H]3[C@@H]1C[C@H](Cc1cccc(C(N)=O)c1)[C@@H]2O` [Compound 10, 3-{[(16β,17β)-17-hydroxy-3-(2-iodoethyl)estra-1(10),2,4-trien-16-yl]methyl}benzamide], the inhibition at 0.1 µM in experiment [1] came to 7%.

Consider `C[C@]12CC[C@@H]3c4ccc(OCCBr)cc4CC[C@H]3[C@@H]1C[C@H](Cc1cccc(C(N)=O)c1)[C@@H]2O` [Compound 15, 3-{[(16β,17β)-3-(2-bromoethoxy)-17-hydroxyestra-1(10),2,4-trien-16-yl]methyl}benzamide], for which the inhibition at 0.1 µM in experiment [1] (setting [4]) came to 39%. The inhibition at 1 µM in experiment [1] (setting [5]) was 81%.

Regarding `C[C@]12CC[C@@H]3c4ccc(CCc5ccccc5)cc4CC[C@H]3[C@@H]1C[C@H](Cc1cccc(C(N)=O)c1)[C@@H]2O` [Compound 19, 3-{[(16β,17β)-17-hydroxy-3-(2-phenylethyl)estra-1(10),2,4-trien-16-yl]methyl}benzamide], the inhibition at 0.1 µM in experiment [1] is 13%.

For `C[C@]12CC[C@@]3(C[C@@H]1CC[C@@H]1[C@@H]2CC[C@]2(C)C(=O)CC[C@@H]12)CN(CCBr)C(=O)O3` [Compound 22, (3R,5S,8R,9S,10S,13S,14S)-3′-(2-bromoethyl)-10,13-dimethyltetrahydrodecahydro-2′H-spiro[cyclopenta[α]phenanthrene-3,5′-[1,3]oxazolidine]-2′,17(2H)-dione], in experiment [2], the inhibition at 0.01 µM was found to be 17% and the inhibition at 1 µM was 93%. Further, in experiment [3], the inhibition at 0.1 µM worked out at 31%.

As to `Cc1cccc(OCCN2C[C@]3(CC[C@@]4(C)[C@@H](CC[C@@H]5[C@@H]4CC[C@]4(C)C(=O)CC[C@@H]54)C3)OC2=O)c1` [Compound 23a, (3R,5S,8R,9S,10S,13S,14S)-10,13-dimethyl-3′-[2-(3-methylphenoxy)ethyl]tetrahydrodecahydro-2′H-spiro[cyclopenta[α]phenanthrene-3,5′-[1,3]oxazolidine]-2′,17(2H)-dione], in experiment [2], the inhibition at 0.01 µM is 13% and the inhibition at 1 µM turned out to be 95%. Also, the inhibition at 0.1 µM in experiment [3] worked out at 40%.

As for `Cc1cccc(S(=O)(=O)CCN2C[C@]3(CC[C@@]4(C)[C@@H](CC[C@@H]5[C@@H]4CC[C@]4(C)C(=O)CC[C@@H]54)C3)OC2=O)c1` [Compound 23b], in experiment [2], the inhibition at 0.01 µM stood at 0%, the inhibition at 0.1 µM amounted to 52% and the inhibition at 1 µM was 93%. Further, the inhibition at 0.1 µM in experiment [3] is 5%.

With `C[C@]12CC[C@@]3(C[C@@H]1CC[C@@H]1[C@@H]2CC[C@]2(C)C(=O)CC[C@@H]12)CN(CCN1CCCCC1)C(=O)O3` [Compound 23c, (3R,5S,8R,9S,10S,13S,14S)-10,13-dimethyl-3′-[2-(piperidin-1-yl)ethyl]tetrahydrodecahydro-2′H-spiro[cyclopenta[α]phenanthrene-3,5′-[1,3]oxazolidine]-2′,17(2H)-dione], in experiment [2], the inhibition at 0.01 µM was determined as 0%, the inhibition at 0.1 µM is 0% and the inhibition at 1 µM is 21%. Further, the “Intact cells (%) (0.1 μM), tested in another experiment” value in experiment [3] is 10^b %.

For `CCN(CCN1C[C@]2(CC[C@@]3(C)[C@@H](CC[C@@H]4[C@@H]3CC[C@]3(C)C(=O)CC[C@@H]43)C2)OC1=O)C1CCCCC1` [Compound 23e, (3R,5S,8R,9S,10S,13S,14S)-3′-{2-[cyclohexyl(ethyl)amino]ethyl}-10,13-dimethyltetradecahydro-2′H-spiro[cyclopenta[α]phenanthrene-3,5′-[1,3]oxazolidine]-2′,17(2H)-dione], in experiment [2], the inhibition at 0.01 µM turned out to be 2%, the inhibition at 0.1 µM was found to be 21% and the inhibition at 1 µM was determined as 72%. In addition, the inhibition at 0.1 µM in experiment [3] was determined as 2%.

Turning to `CCCN(CCC)CCN1C[C@]2(CC[C@@]3(C)[C@@H](CC[C@@H]4[C@@H]3CC[C@]3(C)C(=O)CC[C@@H]43)C2)OC1=O` [Compound 23f, (3R,5S,8R,9S,10S,13S,14S)-3′-[2-(dipropylamino)ethyl]-10,13-dimethyltetradecahydro-2′H-spiro[cyclopenta[α]phenanthrene-3,5′-[1,3]oxazolidine]-2′,17(2H)-dione], in experiment [2], the inhibition at 0.01 µM turned out to be 0%, the inhibition at 0.1 µM was 10% and the inhibition at 1 µM is 62%. Also, the “Intact cells (%) (0.1 μM), tested in another experiment” value in experiment [3] was 8^b %.

With `CCCN(CCN1C[C@]2(CC[C@@]3(C)[C@@H](CC[C@@H]4[C@@H]3CC[C@]3(C)C(=O)CC[C@@H]43)C2)OC1=O)C(=O)CC` [Compound 23g, N-{(3R,5S,8R,9S,10S,13S,14S)-10,13-dimethyl-2′,17-dioxohexadecahydro-3′H-spiro[cyclopenta[α]phenanthrene-3,5′-[1,3]oxazolidine-3′-yl]ethyl}-N-propylpropanamide], in experiment [2], the inhibition at 0.01 µM was found to be 0%, the inhibition at 0.1 µM is 35% and the inhibition at 1 µM came out at 80%. Further, the inhibition at 0.1 µM in experiment [3] turned out to be 25%.

On to `C[C@]12CC[C@@H]3c4ccc(CCCO)cc4CC[C@H]3[C@@H]1C[C@H](Cc1cccc(C(N)=O)c1)[C@@H]2O` [Compound 24, 3-{[(16β,17β)-17-hydroxy-3-(3-hydroxypropyl)estra-1(10),2,4-trien-16-yl]methyl}benzamide], for which the inhibition at 0.1 µM in experiment [1] (setting [4]) was found to be 16%.

With `C[C@]12CC[C@@H]3c4ccc(CCCBr)cc4CC[C@H]3[C@@H]1C[C@H](Cc1cccc(C(N)=O)c1)[C@@H]2O` [Compound 25, 3-{[(16β,17β)-3-(3-bromopropyl)-17-hydroxyestra-1(10),2,4-trien-16-yl]methyl}benzamide], in experiment [1], the inhibition at 0.1 µM was found to be 37% and the inhibition at 1 µM was found to be 82%.

For `CNC(=O)Cc1ccc2c(c1)CC[C@@H]1[C@@H]2CC[C@]2(C)[C@@H](O)[C@@H](Cc3cccc(C(N)=O)c3)C[C@@H]12` [Compound 32, 3-{[(16β,17β)-17-hydroxy-3-[2-(methylamino)-2-oxoethyl]estra-1(10),2,4-trien-16-yl]methyl}benzamide], in experiment [1], the inhibition at 0.1 µM worked out at 5% and the inhibition at 1 µM came to 15%.

`CN(C)Cc1ccc2c(c1)CC[C@@H]1[C@@H]2CC[C@]2(C)[C@@H](O)[C@@H](Cc3cccc(C(N)=O)c3)C[C@@H]12` [Compound 40a, 3-{[(16β,17β)-3-[(dimethylamino)methyl]-17-hydroxyestra-1,3,5(10)-trien-16-yl]methyl}benzamide]: in experiment [1] (setting [4]), the inhibition at 0.1 µM was determined as 12%. Further, in experiment [1] (setting [5]), the inhibition at 1 µM was determined as 49%.

Consider `C[C@]12CC[C@@H]3c4ccc(CN5CCCC5)cc4CC[C@H]3[C@@H]1C[C@H](Cc1cccc(C(N)=O)c1)[C@@H]2O` [Compound 40c, 3-{[(16β,17β)-17-hydroxy-3-(pyrrolidin-1-ylmethyl)estra-1,3,5(10)-trien-16-yl]methyl}benzamide], for which the inhibition at 0.1 µM in experiment [1] (setting [4]) is 1%. Besides, in experiment [1] (setting [5]), the inhibition at 1 µM worked out at 28%.

For the compound `C[C@]12CC[C@@H]3c4ccc(C(=O)N5CCCC5)cc4CC[C@H]3[C@@H]1C[C@H](Cc1cccc(C(N)=O)c1)[C@@H]2O` [Compound 41c, 3-{[(16β,17β)-17-hydroxy-3-(pyrrolidin-1-ylcarbonyl)estra-1,3,5(10)-trien-16-yl]methyl}benzamide], in experiment [1], the inhibition at 0.1 µM is 0% and the inhibition at 1 µM is 13%.
